Reference: patent publication EP4810052A2, “HCRHR2 SELECTIVE POLYPEPTIDES” (Gubra A/S, priority 2023, dated 2026)
pEC50: −log10 of the molar value. Starred links: 1 amine or outer side, 2 acyl side, 3 side chain; linkers in the order of their positions; H or OH if unused. Non-standard residues stand in square brackets, D forms with d. Residues, ends and D or L forms follow the SMILES beside them. Groups on a side chain read outwards from the residue. *: point of attachment. C20 diacid = O=C(O)CCCCCCCCCCCCCCCCCCC(=O)*; γGlu = O=C(O)[C@H](CCC(=O)[*:2])N[*:1]; NMeI = CC[C@H](C)[C@H](NC)C(=O)O; AEEA = NCCOCCOCC(=O)O

Molecular target: T1, hCRHR2 (Homo sapiens, UniProt Q13324)
T1 sequence (Q13324 1-411): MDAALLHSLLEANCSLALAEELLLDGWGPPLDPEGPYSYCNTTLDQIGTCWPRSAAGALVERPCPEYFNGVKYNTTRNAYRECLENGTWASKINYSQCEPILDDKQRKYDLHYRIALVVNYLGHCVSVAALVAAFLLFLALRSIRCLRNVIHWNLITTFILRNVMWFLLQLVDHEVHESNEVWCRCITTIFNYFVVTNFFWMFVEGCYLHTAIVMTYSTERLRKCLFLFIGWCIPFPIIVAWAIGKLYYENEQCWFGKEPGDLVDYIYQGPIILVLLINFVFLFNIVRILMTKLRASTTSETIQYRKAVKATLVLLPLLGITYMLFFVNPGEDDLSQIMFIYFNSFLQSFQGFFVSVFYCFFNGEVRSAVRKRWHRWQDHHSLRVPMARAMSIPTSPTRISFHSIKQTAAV
Assay: HTRF cAMP assay, determination of hCRHR2 potency (peptide libraries 5 conc., purified peptides 11 conc.)
Assay type: cell-based
Conditions: for Selectivity ratio (hCRHR1/ hCRHR2): hCRHR1-EC50/hCRHR2-EC50; for pEC50: purified peptides, CHO-K1 cells stably expressing hCRHR2, cAMP HTRF, read-out: hCRHR2 EC50
Text: HTRF (CisBio) cAMP assay: The assay technology has thoroughly been described in the CisBio HTRF cAMP assay Kit manual (# 62AM4PEC). Briefly, time resolved fluorescence technic was applied to measure cAMP. This technic is based on a competitive immunoassay using cryptate-labelled anti-cAMP antibody and d2-labeled cAMP. In the absence of cellular cAMP, the anti-cAMP cryptate conjugate may get into proximity to cAMP-d2 conjugate and energy (FRET) can be transferred from cryptate to d2.
CHO-K1 cells stably expressing the human corticotropin-releasing hormone receptor 2 (Eurofins/DiscoverX, Cat #95-0048C2 hCRHR2 stable monoclonal cell lines) were used as cells in suspension, brought to life from frozen cell stocks immediately before assay performance.
Concentration-response evaluation of compounds was performed with 5 concentrations of agonist peptides and EC50 values were calculated by nonlinear regression using sigmoid concentration-response with variable slope.
Concentration-response evaluation of compounds was performed with 11 concentrations of agonist peptides and EC50 values were calculated by nonlinear regression using sigmoid concentration-response with variable slope.

| Selectivity ratio (hCRHR1/ hCRHR2) | pEC50 | Compound |
| --- | --- | --- |
| 79 | 8.85 | CC[C@H](C)[C@H](NC(=O)COCCOCCNC(=O)COCCOCCNC(=O)CC[C@H](NC(=O)CC[C@H](NC(=O)CCCCCCCCCCCCCCCCCCC(=O)O)C(=O)O)C(=O)O)C(=O)N[C@H](C(=O)N[C@@H](CC(C)C)C(=O)N[C@@H](CO)C(=O)N[C@@H](CC(C)C)C(=O)N[C@@H](CC(=O)O)C(=O)N[C@H](C(=O)N1CCC[C@H]1C(=O)N[C@H](C(=O)NCC(=O)N[C@@H](CC(C)C)C(=O)N[C@@H](CC(C)C)C(=O)N[C@@H](CCC(N)=O)C(=O)N[C@H](C(=O)N[C@@H](CC(C)C)C(=O)N[C@@H](CC(C)C)C(=O)N[C@@H](CCC(=O)O)C(=O)N[C@@H](CCC(N)=O)C(=O)N[C@@H](C)C(=O)N[C@@H](CCCNC(=N)N)C(=O)N[C@@H](C)C(=O)N[C@@H](CCCNC(=N)N)C(=O)N[C@@H](C)C(=O)N[C@@H](C)C(=O)N[C@@H](CCCNC(=N)N)C(=O)N[C@@H](CCC(=O)O)C(=O)N[C@@H](CCC(N)=O)C(=O)N[C@@H](C)C(=O)N[C@H](C(=O)N[C@H](C(=O)N[C@@H](CC(N)=O)C(=O)N[C@@H](C)C(=O)N[C@@H](CCC(=O)O)C(=O)N[C@H](C(=O)N[C@@H](CC(C)C)C(=O)N[C@@H](C)C(=O)N[C@@H](CCC(=O)O)C(=O)N[C@H](C(N)=O)C(C)C)[C@@H](C)CC)[C@@H](C)O)[C@@H](C)O)[C@@H](C)CC)[C@@H](C)CC)C(C)C)C(C)C [SEQ ID NO: 260] ({C20 diacid-γGlu-γGlu-AEEA-AEEA}-IVLSLDVPIGLLQILLEQARARAAREQATTNAEILAEV-NH2) |
| 139 | 9.31 | CC[C@H](C)[C@H](NC)C(=O)N[C@H](C(=O)N[C@H](C(=O)N[C@@H](CO)C(=O)N[C@@H](CC(C)C)C(=O)N[C@@H](CC(=O)O)C(=O)N[C@H](C(=O)N1CCC[C@H]1C(=O)N[C@H](C(=O)NCC(=O)N[C@@H](CC(C)C)C(=O)N[C@@H](CC(C)C)C(=O)N[C@@H](CCC(N)=O)C(=O)N[C@H](C(=O)N[C@@H](CC(C)C)C(=O)N[C@@H](CC(C)C)C(=O)N[C@@H](CCC(=O)O)C(=O)N[C@@H](CCC(N)=O)C(=O)N[C@@H](CCC(=O)O)C(=O)N[C@@H](CCCCN)C(=O)N[C@@H](CCC(N)=O)C(=O)N[C@@H](CCC(=O)O)C(=O)N[C@@H](CCCCN)C(=O)N[C@@H](CCC(=O)O)C(=O)N[C@@H](CCCCN)C(=O)N[C@@H](CCC(N)=O)C(=O)N[C@@H](CCC(N)=O)C(=O)N[C@@H](C)C(=O)N[C@@H](CCCCNC(=O)COCCOCCNC(=O)COCCOCCNC(=O)CC[C@H](NC(=O)CC[C@H](NC(=O)CCCCCCCCCCCCCCCCCCC(=O)O)C(=O)O)C(=O)O)C(=O)N[C@H](C(=O)N[C@@H](CC(N)=O)C(=O)N[C@@H](C)C(=O)N[C@@H](CCC(=O)O)C(=O)N[C@H](C(=O)N[C@@H](CC(C)C)C(=O)N[C@@H](C)C(=O)N[C@@H](CCC(N)=O)C(=O)N[C@H](C(N)=O)C(C)C)[C@@H](C)CC)[C@@H](C)O)[C@@H](C)CC)[C@@H](C)CC)C(C)C)[C@@H](C)O)C(C)C [SEQ ID NO: 10, reference compound] (H-[NMeI]VTSLDVPIGLLQILLEQEKQEKEKQQAK([AEEA-AEEA-γGlu-γGlu-C20 diacid])TNAEILAQV-NH2) |
